# Earlier results in US20080089854A1, “Skin care compositions” (priority 2006, published 2008).
# What was measured:
# [1] = topical application
# [2] = animal studies
structure (smiles),measurement,setting,value
O=C(O)CCCCCCCC(=O)O [azelaic acid],share of topically applied azelaic acid that is absorbed,[1],about 3.6%
same,adverse effects on fertility or reproduction,[2],no adverse effects
